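Briefly, cells in 96-well plates were exposed to five compound concentrations for 48 h, and endpoints were estimated by linear interpolation. The concentration for 50% growth inhibition is given as GI50.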 Active and inactive are the calls of the source. Rule as the data show it: active = GI50 up to about 1.1 µM and inactive = higher.
Tests used:
Assay in all cases: NCI tumour cell line growth inhibition, 48 h
786-0 = test system: 786-0
A498 = test system: A498
A549 = test system: A549
ACHN = test system: ACHN
BT-549 = test system: BT-549
CAKI-1 = test system: CAKI-1
COLO 205 = test system: COLO 205
DU-145 = test system: DU-145
EKVX = test system: EKVX
HCC 2998 = test system: HCC 2998
HCT-116 = test system: HCT-116
HCT-15 = test system: HCT-15
HOP-62 = test system: HOP-62
HOP-92 = test system: HOP-92
HT-29 = test system: HT-29
Hs-578T = test system: Hs-578T
IGROV-1 = test system: IGROV-1
K562 = test system: K562
KM12 = test system: KM12
LOX IMVI = test system: LOX IMVI
M14 = test system: M14
MCF7 = test system: MCF7
MDA-MB-231 = test system: MDA-MB-231
MDA-MB-435 = test system: MDA-MB-435
MDA-N = test system: MDA-N
Malme-3M = test system: Malme-3M
NCI-H226 = test system: NCI-H226
NCI-H23 = test system: NCI-H23
NCI-H460 = test system: NCI-H460
NCI-H522 = test system: NCI-H522
NCI/ADR-RES = test system: NCI/ADR-RES
OVCAR-3 = test system: OVCAR-3
OVCAR-4 = test system: OVCAR-4
OVCAR-5 = test system: OVCAR-5
OVCAR-8 = test system: OVCAR-8
PC-3 = test system: PC-3
RPMI-8226 = test system: RPMI-8226
RXF 393 = test system: RXF 393
SF-268 = test system: SF-268
SF-295 = test system: SF-295
SF-539 = test system: SF-539
SK-MEL-28 = test system: SK-MEL-28
SK-MEL-2 = test system: SK-MEL-2
SK-MEL-5 = test system: SK-MEL-5
SK-OV-3 = test system: SK-OV-3
SN12C = test system: SN12C
SNB-19 = test system: SNB-19
SNB-75 = test system: SNB-75
SR = test system: SR
SW-620 = test system: SW-620
T47D = test system: T47D
TK-10 = test system: TK-10
U-251 = test system: U-251
UACC-257 = test system: UACC-257
UACC-62 = test system: UACC-62
UO-31 = test system: UO-31
CCRF-CEM = test system: CCRF-CEM
HL-60 = test system: HL-60
MOLT-4 = test system: MOLT-4

## C=CCSc1nc2ccccc2c(=O)n1Cc1ccco1
786-0
  GI50: > 100 µM (inactive)
A498
  GI50: > 100 µM (inactive)
A549
  GI50: 78.9 µM (inactive)
ACHN
  GI50: > 100 µM (inactive)
BT-549
  GI50: > 100 µM (inactive)
CAKI-1
  GI50: > 100 µM (inactive)
COLO 205
  GI50: > 100 µM (inactive)
DU-145
  GI50: > 100 µM (inactive)
EKVX
  GI50: > 100 µM (inactive)
HCC 2998
  GI50: > 100 µM (inactive)
HCT-116
  GI50: 82 µM (inactive)
HCT-15
  GI50: 64.1 µM
HOP-62
  GI50: > 100 µM (inactive)
HOP-92
  GI50: 86.3 µM (inactive)
HT-29
  GI50: 50.1 µM (inactive)
Hs-578T
  GI50: > 100 µM (inactive)
IGROV-1
  GI50: > 100 µM (inactive)
K562
  GI50: > 100 µM (inactive)
KM12
  GI50: > 100 µM (inactive)
LOX IMVI
  GI50: > 100 µM (inactive)
M14
  GI50: > 100 µM (inactive)
MCF7
  GI50: 52.2 µM (inactive)
MDA-MB-231
  GI50: > 100 µM (inactive)
MDA-MB-435
  GI50: > 100 µM (inactive)
MDA-N
  GI50: > 100 µM (inactive)
Malme-3M
  GI50: > 100 µM (inactive)
NCI-H226
  GI50: > 100 µM (inactive)
NCI-H23
  GI50: 94.8 µM (inactive)
NCI-H460
  GI50: 73.5 µM (inactive)
NCI-H522
  GI50: 61.8 µM (inactive)
NCI/ADR-RES
  GI50: 39.4 µM (inactive)
OVCAR-3
  GI50: 68.7 µM (inactive)
OVCAR-4
  GI50: 80.5 µM (inactive)
OVCAR-5
  GI50: > 100 µM (inactive)
OVCAR-8
  GI50: > 100 µM (inactive)
PC-3
  GI50: > 100 µM (inactive)
RPMI-8226
  GI50: 37.4 µM (inactive)
RXF 393
  GI50: 35.6 µM (inactive)
SF-268
  GI50: > 100 µM (inactive)
SF-295
  GI50: > 100 µM (inactive)
SF-539
  GI50: > 100 µM (inactive)
SK-MEL-28
  GI50: > 100 µM (inactive)
SK-MEL-2
  GI50: > 100 µM (inactive)
SK-MEL-5
  GI50: 45 µM (inactive)
SK-OV-3
  GI50: > 100 µM (inactive)
SN12C
  GI50: > 100 µM (inactive)
SNB-19
  GI50: > 100 µM (inactive)
SNB-75
  GI50: 89.1 µM (inactive)
SR
  GI50: 47 µM (inactive)
SW-620
  GI50: > 100 µM (inactive)
T47D
  GI50: 29.1 µM (inactive)
TK-10
  GI50: > 100 µM (inactive)
U-251
  GI50: > 100 µM (inactive)
UACC-257
  GI50: > 100 µM (inactive)
UACC-62
  GI50: > 100 µM (inactive)
UO-31
  GI50: 91.6 µM (inactive)

## CCOP(=O)(C/C=C/Cn1nc(Br)c(=O)[nH]c1=O)OCC
786-0
  GI50: > 100 µM (inactive)
A498
  GI50: > 100 µM (inactive)
A549
  GI50: > 100 µM (inactive)
ACHN
  GI50: > 100 µM (inactive)
BT-549
  GI50: > 100 µM (inactive)
CAKI-1
  GI50: > 100 µM (inactive)
CCRF-CEM
  GI50: > 100 µM (inactive)
COLO 205
  GI50: > 100 µM (inactive)
DU-145
  GI50: > 100 µM (inactive)
EKVX
  GI50: > 100 µM (inactive)
HCC 2998
  GI50: > 100 µM (inactive)
HCT-116
  GI50: > 100 µM (inactive)
HCT-15
  GI50: > 100 µM
HL-60
  GI50: > 100 µM (inactive)
HOP-62
  GI50: > 100 µM (inactive)
HOP-92
  GI50: > 100 µM (inactive)
HT-29
  GI50: > 100 µM (inactive)
Hs-578T
  GI50: > 100 µM (inactive)
IGROV-1
  GI50: > 100 µM (inactive)
K562
  GI50: > 100 µM (inactive)
KM12
  GI50: > 100 µM (inactive)
LOX IMVI
  GI50: > 100 µM (inactive)
M14
  GI50: > 100 µM (inactive)
MCF7
  GI50: > 100 µM (inactive)
MDA-MB-231
  GI50: > 100 µM (inactive)
MDA-MB-435
  GI50: > 100 µM (inactive)
MDA-N
  GI50: > 100 µM (inactive)
MOLT-4
  GI50: > 100 µM (inactive)
Malme-3M
  GI50: > 100 µM (inactive)
NCI-H226
  GI50: > 100 µM (inactive)
NCI-H23
  GI50: > 100 µM (inactive)
NCI-H460
  GI50: > 100 µM (inactive)
NCI-H522
  GI50: > 100 µM (inactive)
NCI/ADR-RES
  GI50: > 100 µM (inactive)
OVCAR-3
  GI50: > 100 µM (inactive)
OVCAR-4
  GI50: > 100 µM (inactive)
OVCAR-5
  GI50: > 100 µM (inactive)
OVCAR-8
  GI50: > 100 µM (inactive)
PC-3
  GI50: > 100 µM (inactive)
RPMI-8226
  GI50: > 100 µM (inactive)
RXF 393
  GI50: > 100 µM (inactive)
SF-268
  GI50: > 100 µM (inactive)
SF-295
  GI50: > 100 µM (inactive)
SF-539
  GI50: > 100 µM (inactive)
SK-MEL-28
  GI50: > 100 µM (inactive)
SK-MEL-2
  GI50: > 100 µM (inactive)
SK-MEL-5
  GI50: > 100 µM (inactive)
SN12C
  GI50: > 100 µM (inactive)
SNB-19
  GI50: > 100 µM (inactive)
SNB-75
  GI50: > 100 µM (inactive)
SR
  GI50: > 100 µM (inactive)
SW-620
  GI50: > 100 µM (inactive)
T47D
  GI50: > 100 µM (inactive)
TK-10
  GI50: > 100 µM (inactive)
U-251
  GI50: > 100 µM (inactive)
UACC-257
  GI50: > 100 µM (inactive)
UACC-62
  GI50: > 100 µM (inactive)
UO-31
  GI50: > 100 µM (inactive)

From ChEMBL document CHEMBL1201862, “PubChem BioAssay data set” (2004)
